Reference: article PMC6002741 (British Journal of Pharmacology, 2018)
One block for each compound: values may come before it.

Columns and labels:
Type in all cases: cell-based
TRPM4 [1] = molecular target: T1, TRPM4 (Homo sapiens, UniProt Q8TD43)
TRPM4 [2] = molecular target: T1, TRPM4; assay: Na+ influx screening assay
TRPM5 = molecular target: T2, TRPM5 (Homo sapiens, UniProt Q9NZQ8); assay: Excised membrane voltage clamp recordings on HEK293 cells expressing TRPM5; conditions: excised patches, 50 μM free Ca2+, +100 mV
T2 sequence (Q9NZQ8 1-1165): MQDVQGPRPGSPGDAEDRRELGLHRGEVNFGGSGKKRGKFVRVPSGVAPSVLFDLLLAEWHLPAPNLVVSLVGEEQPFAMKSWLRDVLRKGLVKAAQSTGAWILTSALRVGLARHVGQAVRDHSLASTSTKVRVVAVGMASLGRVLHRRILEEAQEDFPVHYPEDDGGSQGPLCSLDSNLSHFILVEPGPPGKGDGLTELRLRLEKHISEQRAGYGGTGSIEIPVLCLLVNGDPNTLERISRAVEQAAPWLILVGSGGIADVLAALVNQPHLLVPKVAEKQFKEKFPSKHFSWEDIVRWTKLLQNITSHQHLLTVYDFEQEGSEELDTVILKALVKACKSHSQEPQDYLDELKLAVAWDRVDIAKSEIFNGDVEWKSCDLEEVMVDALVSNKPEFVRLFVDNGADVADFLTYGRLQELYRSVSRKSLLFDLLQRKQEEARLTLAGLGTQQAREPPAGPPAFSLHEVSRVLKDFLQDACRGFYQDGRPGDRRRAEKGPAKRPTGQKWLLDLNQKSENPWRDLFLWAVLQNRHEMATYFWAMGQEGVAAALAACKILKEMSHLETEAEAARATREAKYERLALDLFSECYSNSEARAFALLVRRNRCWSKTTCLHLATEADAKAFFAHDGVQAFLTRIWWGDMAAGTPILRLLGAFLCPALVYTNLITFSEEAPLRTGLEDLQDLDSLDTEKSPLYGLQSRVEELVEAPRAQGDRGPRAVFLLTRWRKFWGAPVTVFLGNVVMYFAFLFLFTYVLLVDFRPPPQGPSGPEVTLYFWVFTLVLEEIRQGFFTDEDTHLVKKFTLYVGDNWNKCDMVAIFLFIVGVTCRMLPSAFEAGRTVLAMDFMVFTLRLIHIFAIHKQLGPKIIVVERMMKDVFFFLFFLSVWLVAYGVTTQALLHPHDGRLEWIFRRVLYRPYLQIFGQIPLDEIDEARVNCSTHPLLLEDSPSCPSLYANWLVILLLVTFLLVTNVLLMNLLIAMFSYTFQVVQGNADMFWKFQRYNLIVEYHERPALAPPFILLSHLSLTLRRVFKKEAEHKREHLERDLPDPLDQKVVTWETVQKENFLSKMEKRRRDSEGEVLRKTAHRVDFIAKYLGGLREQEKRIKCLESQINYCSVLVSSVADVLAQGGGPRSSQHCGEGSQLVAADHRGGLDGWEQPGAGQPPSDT

TRPM4 A432T = TRPM4 A432T (Homo sapiens, UniProt Q8TD43, A432T); assay: Western blot of total and surface expression of TRPM4 A432T variant; conditions: 50 μM overnight, HEK293
TRPM4 A432T, sequence (Q8TD43 whole entry A432T): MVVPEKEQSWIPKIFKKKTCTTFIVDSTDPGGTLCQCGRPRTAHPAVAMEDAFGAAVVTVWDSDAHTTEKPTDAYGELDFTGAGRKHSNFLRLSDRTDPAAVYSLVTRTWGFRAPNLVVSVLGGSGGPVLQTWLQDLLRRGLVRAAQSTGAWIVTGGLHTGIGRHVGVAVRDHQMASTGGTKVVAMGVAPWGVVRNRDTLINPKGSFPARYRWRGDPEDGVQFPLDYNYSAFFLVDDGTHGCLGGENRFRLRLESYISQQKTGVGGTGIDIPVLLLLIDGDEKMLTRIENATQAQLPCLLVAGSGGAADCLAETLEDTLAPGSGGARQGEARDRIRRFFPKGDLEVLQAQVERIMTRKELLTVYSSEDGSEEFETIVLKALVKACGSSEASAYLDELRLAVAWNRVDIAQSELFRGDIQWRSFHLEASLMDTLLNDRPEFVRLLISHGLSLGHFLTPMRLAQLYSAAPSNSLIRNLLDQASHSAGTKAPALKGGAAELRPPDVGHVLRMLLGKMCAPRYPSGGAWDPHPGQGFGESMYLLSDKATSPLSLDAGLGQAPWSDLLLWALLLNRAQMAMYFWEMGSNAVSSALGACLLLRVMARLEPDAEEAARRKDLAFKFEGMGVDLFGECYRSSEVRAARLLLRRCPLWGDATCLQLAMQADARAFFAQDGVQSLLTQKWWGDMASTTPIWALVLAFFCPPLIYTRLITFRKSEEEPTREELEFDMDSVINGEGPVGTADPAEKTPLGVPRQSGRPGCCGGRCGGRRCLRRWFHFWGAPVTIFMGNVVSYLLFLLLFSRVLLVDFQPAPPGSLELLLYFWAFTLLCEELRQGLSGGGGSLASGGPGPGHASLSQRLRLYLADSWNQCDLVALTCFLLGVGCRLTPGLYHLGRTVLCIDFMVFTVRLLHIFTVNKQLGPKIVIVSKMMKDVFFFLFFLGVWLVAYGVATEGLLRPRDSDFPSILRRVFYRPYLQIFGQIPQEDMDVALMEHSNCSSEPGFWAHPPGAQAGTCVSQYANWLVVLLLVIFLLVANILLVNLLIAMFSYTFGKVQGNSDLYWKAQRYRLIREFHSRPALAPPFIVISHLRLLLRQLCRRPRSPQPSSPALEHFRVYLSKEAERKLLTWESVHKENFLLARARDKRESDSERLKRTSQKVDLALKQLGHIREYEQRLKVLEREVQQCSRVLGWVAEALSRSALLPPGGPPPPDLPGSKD

T1 sequence (Q8TD43 whole entry): as the sequence (Q8TD43 whole entry A432T) above, with T432A counted along it

Structure (SMILES): Oc1cc2ccccc2c2ccccc12 [9-phenanthrol, reference compound]
IC50 (TRPM4 [1]): 17 ± 2.8 µM

effect on TRPM5 current (TRPM5): variable potentiating effect
Structure (SMILES): Cc1cc(Cl)ccc1OC(C)C(=O)Nc1cc(Cl)ccc1C(=O)O (stereo not shown) [Compound 4]
inhibitory activity on TRPM4-mediated Na+ influx, hit confirmation (TRPM4 [2]; 5 μM, repurchased solid samples): confirmed their inhibitory activity
IC50 (TRPM4 [1]): 1 ± 0.2 µM
inhibition of TRPM4 current on application to the cytosolic side (TRPM4 [1]; 1 μM on cytosolic side of excised patches, washout): reversible inhibition

Structure (SMILES): O=C(COc1ccccc1Cl)Nc1cc(Br)ccc1C(=O)O [Compound 11]
IC50 (TRPM4 [1]): 1.6 ± 0.5 µM

Structure (SMILES): Cc1cc(Cl)ccc1OCC(=O)Nc1cc(Cl)ccc1C(=O)O [Compound 51]
TRPM4 inhibitory activity in words (SAR) (TRPM4 [2]; Na+ influx, Supporting Information Table S3 / text): no inhibitory activity
rescue of A432T total and surface expression (TRPM4 A432T): did not restore the expression

Structure (SMILES): O=C(O)c1ccccc1Nc1cccc(C(F)(F)F)c1 [FFA, flufenamic acid, reference compound]
IC50 (TRPM4 [1]): 9.2 ± 1.2 µM

effect on TRPM5 current (positive control) (TRPM5; 20 μM): inhibited TRPM5 current
Structure (SMILES): O=P(c1ccccc1)(c1ccccc1)c1ccccc1 [TPPO, triphenylphosphine oxide, reference compound]
